Assay results taken from article PMC5995184, “Potent anti-leukemic activity of a specific cyclin-dependent kinase 9 inhibitor in mouse models of chronic lymphocytic leukemia” (Oncotarget, 2018).

Experiments:
[1] = system: panel of 219 recombinant kinases; assay: Broad in vitro selectivity kinase profiling; assay type: biochemical; conditions: 1 μM LDC526, 219 kinases
Procedure: IC50 values for CDK inhibitors were determined using the fluorescence resonance energy transfer (FRET)-based LANCE Ultra KinaSelect Ser/Thr kit (Perkin Elmer). Kinase activity and inhibition were measured according to the manufacturer’s instructions and as previously described. […] Subsequently, phosporylation was detected by addition of specific europium (Eu)-labeled anti-phospho-antibodies (2 nM), which upon binding to the phospho-peptide give rise to a FRET signal. FRET signals were recorded in a time-resolved manner in a Perkin Elmer EnVision reader. Purified cyclin-kinase pairs were obtained from the following suppliers: Carna Biosciences (CDK1-Cyclin B1, CDK6-Cyclin D3, CDK7-Cyclin H-MAT1), ProQinase (CDK2-Cyclin A) and Invitrogen (CDK9-Cyclin T1). Broad selectivity kinase in vitro profiling with LDC526 was carried out using n=219 recombinant kinases (Millipore/Merck, Darmstadt, Germany).

CDK7-Cyclin H-MAT1 = molecular target: T1, CDK7-Cyclin H-MAT1 (Homo sapiens, UniProt P50613); assay: FRET-based LANCE Ultra in vitro enzymatic kinase assay, CDK7; assay type: biochemical
T1 construct: purchased Carna Biosciences
T1 sequence (P50613 whole entry): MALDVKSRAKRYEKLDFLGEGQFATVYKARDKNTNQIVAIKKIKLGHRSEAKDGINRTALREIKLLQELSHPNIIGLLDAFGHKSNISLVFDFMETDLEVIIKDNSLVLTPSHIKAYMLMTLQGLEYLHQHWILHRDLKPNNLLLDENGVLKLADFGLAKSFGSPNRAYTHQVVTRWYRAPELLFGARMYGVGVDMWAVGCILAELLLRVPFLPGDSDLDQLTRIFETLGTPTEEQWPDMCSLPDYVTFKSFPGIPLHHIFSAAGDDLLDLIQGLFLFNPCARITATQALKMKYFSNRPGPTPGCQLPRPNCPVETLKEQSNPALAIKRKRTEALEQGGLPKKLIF
T1 sequence (P51946 whole entry partner): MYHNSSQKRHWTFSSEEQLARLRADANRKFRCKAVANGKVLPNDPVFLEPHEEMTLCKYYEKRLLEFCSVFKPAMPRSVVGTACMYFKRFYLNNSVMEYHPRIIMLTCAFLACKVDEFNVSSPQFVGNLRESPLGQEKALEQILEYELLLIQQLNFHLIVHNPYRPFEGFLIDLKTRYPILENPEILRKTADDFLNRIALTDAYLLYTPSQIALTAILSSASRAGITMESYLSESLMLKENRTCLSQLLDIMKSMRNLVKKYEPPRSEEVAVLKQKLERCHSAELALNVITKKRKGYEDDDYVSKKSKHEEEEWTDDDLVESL
T1 sequence (P51948 whole entry partner): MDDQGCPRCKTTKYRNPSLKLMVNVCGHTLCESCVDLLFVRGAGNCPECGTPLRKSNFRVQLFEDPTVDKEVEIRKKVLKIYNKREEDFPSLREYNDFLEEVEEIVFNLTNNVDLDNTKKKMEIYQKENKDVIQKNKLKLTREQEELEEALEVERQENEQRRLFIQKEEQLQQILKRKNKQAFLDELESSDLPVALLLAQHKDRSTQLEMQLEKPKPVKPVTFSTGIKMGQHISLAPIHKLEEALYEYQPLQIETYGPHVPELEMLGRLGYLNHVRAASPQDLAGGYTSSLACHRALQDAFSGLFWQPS
Procedure: IC50 values for CDK inhibitors were determined using the fluorescence resonance energy transfer (FRET)-based LANCE Ultra KinaSelect Ser/Thr kit (Perkin Elmer). Kinase activity and inhibition were measured according to the manufacturer’s instructions and as previously described. […] FRET signals were recorded in a time-resolved manner in a Perkin Elmer EnVision reader. Purified cyclin-kinase pairs were obtained from the following suppliers: Carna Biosciences (CDK1-Cyclin B1, CDK6-Cyclin D3, CDK7-Cyclin H-MAT1), ProQinase (CDK2-Cyclin A) and Invitrogen (CDK9-Cyclin T1).
Data were analyzed with GraphPad Prism 7 software. Differences were assessed by unpaired or paired Student t tests if not indicated otherwise. Two-sided probabilities of less than 0.05 were considered significant. Nonlinear regression sigmoidal dose-response curve fit was used to determine the IC50 values and to generate graphs.

[2] = system: human CLL cells and human T cells in NSG spleens; assay: Human CLL xenograft in NSG mice, oral LDC526; assay type: in vivo, mouse; conditions: for mean weight loss: 75 mg/kg group
Excerpt: We and others previously established human CLL xenograft models using NOD/SCID and NSG mice, respectively. We chose to use the NSG model for LDC526 experiments since NSG CLL and concomitant T cell engraftment levels are expected to be higher than in the NOD/SCID model. We intravenously injected PBMCs from n=6 CLL patients into n=57 NSG mice and commenced LDC treatment with a 14 day latency according to the experimental set-up outlined in Figure 3A. To study the effect of doses and treatment duration we chose to administer 50 and 75 mg/kg for three days (NSG transplanted with cells originating from n=3 patients) and for five days (NSG transplanted with cells originating from n=3 additional patients). On experimental days 17 and 21 NSG spleens were harvested and the content of human CLL and T cells was determined by cell counting and flow cytometry (Figure 3B). […] Compared to carrier control treatment, numbers of human CLL cells decreased after 3 and 5 days of LDC526 treatment, respectively. However, statistical significance regarding the reduction of human CLL cell numbers was only achieved at the LDC526 75 mg/kg dose level (Figure 3C). […] In order to determine whether there was differential in vivo LDC526 sensitivity of T cell subsets we performed additional staining for human CD4+ and CD8+ T cells present in the spleens of xenografted NSG mice (Figure 4A). […] In contrast, in mice transplanted with cells of n=2 other CLL patients and receiving LDC526 treatment for 5 days we observed a rising CD4/CD8 ratio with increasing LDC526 doses (Figure 4B). This could mean that CD8+ cytotoxic T cells are more susceptible to longer LDC526 exposure (5 versus 3 days) than CD4+ T cells. However, this differential skew within the T cell compartment could also reflect the heterogeneity of T cells derived from different CLL patients. […] A mean weight loss of 1.8% was detectable in mice of the LDC526 75 mg/kg group (day 16). […] Remarkably, human T cell numbers were already decreased at a lower dose level than human CLL cells.
All mice were bred and housed at the University Hospital Essen animal care facility. TCL1 mice were back-crossed more than 6 generations into the C57BL/6 background and were genotyped as previously described. Age-matched TCL1 wild-type littermates served as controls. Peripheral blood counts were determined with the VetABC analyzer (scil, Viernheim, Germany). Blood smears were Wright-Giemsa stained. For the human CLL xenograft experiments eight to 14-week-old NOD.Cg-Prkdc^scid Il2rg^tm1Wjl/SzJ (NOD/scid/γc^null; NSG) mice were sublethally irradiated (3.25 Gy) 24 hours before transplantation. Freshly isolated 1.0 x 10^8 PBMC suspended in 0.2 ml of RPMI were intravenously transplanted as previously described. For oral administration, LDC526 was diluted in polyethelene glycol (PEG Mn 400, Sigma-Aldrich) and administerd by gavage. Animal experiments were performed in accordance with institutional guidelines approved by the Animal Care Committee of the University Hospital Essen.
LDC526 [(3-((4-(4-fluoro-2-methoxyphenyl)-1,3,5-triazin-2-yl)amino)phenyl)methane-sulfonamide, molecular weight 389,41 g/mol, Figure 1A] was provided as powder (LDC526 synthesis, supplementary methods). For oral gavage administration LDC526 was diluted in polyethelene glycol (PEG Mn 400, Sigma-Aldrich, Munich, Germany) followed by sonication for 3 x 5 minutes with intermediate mixing.
Apoptosis and cell death were determined by using Annexin V (BD Biosciences, Heidelberg, Germany) and 4′,6-Diamidin-2-phenylindol (DAPI, Sigma-Aldrich) staining. Erythrocytes of murine peripheral blood samples were lysed with NH4Cl hypotonic solution. Single cell suspensions of murine spleens were prepared as previously described. Murine cells were stained with antibodies directed against murine CD3 (clone 145-2C11), CD5 (53-7.3) and CD19 (1D3), respectively. […]

[3] = 75 mg/kg, day 21, representative plot

Structure (SMILES): COc1cc(F)ccc1-c1ncnc(Nc2cccc(CS(N)(=O)=O)c2)n1 [LDC526, (3-((4-(4-fluoro-2-methoxyphenyl)-1,3,5-triazin-2-yl)amino)phenyl)methane-sulfonamide]
- share of tested kinases still displaying an activity of greater than 80% [1]: More than 85%
- IC50 (CDK7-Cyclin H-MAT1): > 10 µM
- reduction of human CLL cells in NSG spleens compared to carrier control ([2]; 75 mg/kg for 5 days): 77%
- mean weight loss ([2]; day 16): 1.8%
- mean weight loss ([2]; day 21): 3.6%
- flow cytometry gate huCD4, NSG spleen T cells [2, 3]: 81.2
- flow cytometry gate huCD8, NSG spleen T cells [2, 3]: 14.7
- flow cytometry gate huCD45+ huCD3, NSG spleen [2, 3]: 38.7
- numbers of splenic human T cells ([2]; 50 and 75 mg/kg, 3 or 5 days): significantly reduced at both LDC526 doses
